Here are results for one molecule from US20260241036A1, “CHEMOGENETICS-BASED THERAPY FOR NEUROLOGICAL DISORDERS” (GATEWAY BIOTECHNOLOGY, INC., priority 2023, published 2026).

A short description of series [1]: SBAD testing of a control group of SBAD trained animals given CNO, to rule out off-target effects of CNO. The conditions noted are these: control group of three SBAD trained animals; CNO IP 5 mg/kg one hour before SBAD testing. The series is classed as in vivo, mice. The method, then: (§1) Using a shuttle box divided into two compartments, mice were trained to cross from side to side with sound cues in the “Go” trials and remain still in the absence of sound in the “No-Go” trials for 15 days. […] The sound cues were randomly played as white noise or narrow-band noise at 5, 10, 16, 20, and 32 kHz with sound intensities randomly at 75, 80, or 85 dB. […] Additionally, a hurdle was added on training 11 to reinforce the training. After the 15th training day, mice were tested for 3 days to obtain a baseline score to be compared after noise exposure, as well as retraining for 3 days.
A chemogenetic-based model was established by using DREADDs to target excitatory neurons of the IC to establish a more reliable and efficient tinnitus model in mice. Stereotaxic microinjections of excitatory DREADDs [AAV8-CaMKIIa-HM3D-mCherry] were performed in these C57BL/6J mice, similar to previous studies (Saloman et al., 2016; Smith et al. 2016; Horii-Hayashi & Nishi 2021). Coordinates for microinjections were based on the atlas of Paxinos and Watson (2006) (AP: −5.00 mm, ML: +/−1.00 mm, DV: −1.50 mm). Mice were anesthetized with 5% isoflurane and placed in a stereotaxic head frame. During surgery mice were maintained at a 1.5-2% isoflurane level. Hair was removed and a vertical incision was made to expose the skull. The skull was leveled between bregma and lambda. […]

The test system of series [2] is excitatory neurons of the IC. Put plainly: Sound-based avoidance detection (SBAD) testing in the chemogenetic model of tinnitus (excitatory DREADD injected into the IC, activated by CNO). The series is classed as in vivo, C57BL/6J mice. The method, then:
as §1
Following the successful completion of training so that mice reached a high percentage of success in the trials, the mice were exposed to a noise-induced trauma for tinnitus. To ensure that the mice still have their hearing, one ear was protected with an ear plug, while the other ear was exposed to the noise. The mice were placed in a sound booth where they were exposed to 120 dB broadband noise at 4-25 kHz for 2-4 hours. Following the noise exposure, the mice were housed for one month, and then tested to see if they have developed tinnitus. In these testing periods, the mice were tested for three days in the shuttle boxes, where they underwent the Go and No-Go trials, however in the No-Go trials the mice were not shocked, as it is expected that mice with tinnitus would cross compartments in the absence of a sound cue. The mice were continued to be shocked in the Go trials in order to ensure that they have retained their hearing and can hear the sound cues. […] To insure there is a significant difference in the No-Go trial scores, chi-square tests were completed comparing the post-noise exposure tests to the baseline tests. However, if tinnitus is not present in the mice, tests were done after waiting one more month, and another if needed.
A chemogenetic-based model was established by using DREADDs to target excitatory neurons of the IC to establish a more reliable and efficient tinnitus model in mice. […]

For the molecule `C[N+]1([O-])CCN(C2=Nc3cc(Cl)ccc3Nc3ccccc32)CC1` [CNO, Clozapine-N-oxide], in series [1], the “Go and No-Go scores post-CNO injections (behavioral side effects of CNO)” value is listed as “remained stable”. The “number of animals tested positive for tinnitus” value in series [2] (of eight animals, one hour after IP injection of CNO, chi-squared, p<0.03) is on record as “seven”. Besides, in series [2] (one hour after IP injection of CNO, eight mice with 50 or 150 nL AAV8-CaMKIIa-HM3D-mCherry bilaterally in the IC, chi-squared, p<0.03), the “animals tested positive for tinnitus (share of animals)” value is 87%. In addition, in series [2] (post-hoc t-tests (Bonferoni adjusted), p<.001, mice with AAV8-CaMKIIa-HM3D-mCherry in the IC), the “SBAD No-Go scores post-CNO injections compared to baseline and saline injections” value is listed as “significantly reduced”.
